Assay results as given in patent US11912713B2, “7-membered aza-heterocyclic containing delta-opioid receptor modulating compounds, methods of using and making the same” (Trevena, Inc., priority 2017, dated 2024).

Columns and labels:
adult male C57 mice = assay: Tail suspension test (TST); type: in vivo, mouse
Method: The experiments were performed using adult male C57 mice (6-10 weeks of age, 20-30 g, Hilltop Lab, PA). The mice were housed in standard rodent cages with stainless steel mesh wire bar lids in groups of 4 with controlled temperature and light cycle (6:00 a.m.-6:00 p.m.). Animals were given free access to food (Harlan Teklad Global 18% protein (Madison, WI)) and water during a minimum 2-day habituation period to the laboratory. Animals that were used in the study were handled, housed, and sacrificed (using compressed CO2) in accord with the current NIH guidelines regarding the use and care of laboratory animals, and all applicable local, state, and federal regulations and guidelines. Animals are identified by cage number, and by markings applied to the proximal tip of the tail using a permanent marker. Group sizes (n=8, and therefore 30-50 animals per study) provide reliable estimates of treatment effects, and this species and strain of mouse has been recognized as appropriate for pharmacology studies.
To measure efficacy of the compounds the compounds were tested using a tail suspension test. The tail suspension test is a behavioral test used to evaluate the efficacy of antidepressant drugs in rodents. In the TST, mice (n=8/group) were suspended by the tail with tape approximately 30-50 cm above the lab bench. Mice are positioned such that the base of their tail is perpendicular to the lab bench. Each mouse is given 1 trial that last 6 minutes. The total duration of immobility is calculated as the percentage of time that the mouse is immobile. The duration of immobility is the main parameter measured. This is calculated from the cumulated time during which the animals is absent of initiated movements including passive swaying. When antidepressant drugs are administered, immobility is decreased by a variety of classes of antidepressant drugs. One or more of the compounds show antidepressant activity.

[1] = test system: mu- and kappa-opioid receptors; conditions: versus mu- and kappa-opioid receptors
From the text: Plasmids encoding delta-opioid receptor (Accession NP_000902), mu-opioid receptor (Accession NP_000905) and kappa-opioid receptor (Accession Assession NP_000903) were generated in the pCMV-Prolink backbone and transfected into an EA-arrestin parental human embryonic kidney (HEK-293) cell line from DiscoveRx Corporation. Clonal stable lines were subsequently selected under G418.
The values are normalized against DPDPE ([D-Pen2,5]Enkephalin, [D-Pen2,D-Pen5]Enkephalin), which is a known agonist of the receptor. Compound selectivity was also evaluated by testing compounds on the mu- and kappa-opioid receptors, the values from which were normalized against DAMGO ([D-Ala2, N-Me-Phe4, Gly5-ol]-Enkephalin acetate salt) and U69,593, respectively.

[2] = biological target: T1, delta-opioid receptor (hDOR) (Homo sapiens, UniProt P41143); assay: β-Arrestin recruitment assay (PathHunter); type: cell-based
Method: (§1) Clonal stable lines were subsequently selected under G418.
(§2) Cell lines were grown adherently in Minimum Essential Media (Cellgro cat #10-010-CM) containing 10% fetal bovine serum (Hyclone cat #SH30071.03), 4 mM glutamine (Cellgro cat #25-005-CI), 150 ug/ml hygromycin B (Cellgro cat #30-240-CR), 150 ug/ml G418 (Cellgro cat #30-234-CR), and 50 u/50 ug penicillin/streptomycin (Lonza cat #17-603E). Prior to the assay cells were removed from the flasks with CellStripper (Cellgro cat #25-056-CI), repeatedly pipetted to disperse cells, and spun at low speed for 5 min at room temperature. Cells were then resuspended at 250,000 cells/ml in growth media and plated at 5,000 cells/well in 384 well plates (Greiner part #784080). Plates were incubated overnight at 37° C., 5% CO2 in a humidified incubator.
Receptor mediated beta-arrestin recruitment was determined using the DiscoveRx β-arrestin PathHunter Detection kit (cat #93-0001). In this system, β-Arrestin is fused to an N-terminal deletion mutant of β-galactosidase (termed the enzyme acceptor of EA) and the GPCR of interest is fused to a smaller (42 amino acids), weakly complementing fragment termed ProLink™. […] Following a 60 minute incubation at 37° C. the components of the DiscoveRx β-arrestin PathHunter Detection kit were added as directed and the plates were read after 1 hour on a BMG PheraStar plate reader.

[3] = biological target: T1, delta-opioid receptor (hDOR); assay: cAMP assay (receptor G-protein mediated response); type: cell-based; conditions: efficacy, normalized against DPDPE
Method: as §1, §2
Receptor G-protein mediated responses were determined by measuring changes in intracellular cAMP using CisBio HTRF cAMP HiRange kit (cat #62AM6PEJ) based on time-resolved fluorescence resonance energy transfer (TR-FRET). […] Following a 30 minute incubation at 37° C. the components of the cAMP HiRange kit were added as directed and the plates were read after 1 hour on a BMG PheraStar plate reader. Responses were measured as the ratio of fluorescence at 665 nm/620 nm per manufacturer's instructions.

T1 sequence (P41143 whole entry): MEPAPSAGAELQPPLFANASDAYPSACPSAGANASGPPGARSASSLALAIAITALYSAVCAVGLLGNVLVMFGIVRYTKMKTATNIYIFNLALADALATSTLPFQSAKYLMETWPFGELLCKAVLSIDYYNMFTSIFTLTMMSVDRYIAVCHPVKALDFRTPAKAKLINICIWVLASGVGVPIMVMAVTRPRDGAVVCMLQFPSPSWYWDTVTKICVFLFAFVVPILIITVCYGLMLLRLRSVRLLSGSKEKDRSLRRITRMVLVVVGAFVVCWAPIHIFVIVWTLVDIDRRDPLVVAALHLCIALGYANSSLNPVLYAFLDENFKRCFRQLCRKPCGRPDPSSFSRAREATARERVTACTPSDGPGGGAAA

CCCN1C2CCC1CC(c1ccc(OC)cc1)C(CCc1ccc3c(c1)C(=O)NC3)C2 (stereo not drawn) [Compound C0084, 6-{2-((cis)-4-(4-methoxyphenyl)-9-propyl-9-azabicyclo[4.2.1]nonan-3-yl]ethyl}-2,3-dihydro-1H-(trans)-isoindol-1-one]
Active TST Dose (adult male C57 mice; route sc): ≤30 mg/kg

COc1ccc(C2CCN(CCc3ccccc3)C(C)CC2COc2ccc3c(c2)C(=O)NC3)cc1 (stereo not drawn) [Compound C0457, 6-{[(trans)-5-(4-methoxyphenyl)-2-methyl-1-(2-phenylethyl)azepan-4-yl]methoxy}-2,3-dihydro-1H-isoindol-1-one]
Active TST Dose (adult male C57 mice; route po): ≤60 mg/kg

Fc1ccc([C@@H]2CCNC[C@H]2COc2ccc3c(c2)OCO3)cc1 [Paroxetine]
selectivity for the delta-opioid receptor [1]: non-selectivity | hDOR B Span ([2]; efficacy, normalized against DPDPE): <100 | EC50 ([2]; β-arrestin recruitment, HEK-293 cells, read-out: hDOR B pEC50 (converted)): > 1 µM | hDOR G Span [3]: <100

CCCN1C2CCC1CC(c1ccc(OC)cc1)=C(COc1ccc3c(c1)C(=O)NC3)C2 (racemic) [Compound C0066, 6-{[4-(4-methoxyphenyl)-9-propyl-9-azabicyclo[4.2.1]non-3-en-3-yl]methoxy}-2,3-dihydro-1H-isoindol-1-one]
Active TST Dose (adult male C57 mice; route sc): ≤10 mg/kg

CCCN1CC[C@@H](COc2ccc3c(c2)C(=O)NC3)[C@H](c2ccc(OC)cc2)CC1 (racemic) [Compound C0004, (±)-6-{((trans)-5-(4-methoxyphenyl)-1-propylazepan-4-yl]methoxy}-2,3-dihydro-1H-isoindol-1-one]
Active TST Dose (adult male C57 mice; route sc): ≤30 mg/kg
